According to patent US9561228B2 (Celgene Avilomics Research, Inc., priority 2013, dated 2017):

How the values were obtained:
Type in all cases: cell-based
[1] = system: A375 cells (malignant melanoma); experiment: Inhibition of cancer cell proliferation, A375 (CellTiterGlo, 72 hours); details: Homo sapiens, A-375
How it was run: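 A375 melanoma cells, 3000/well, exposed 72 h at 37 °C to compound in 3-fold serial dilutions (solution added as 2× stock starting at 5,000 nM in serum-free DMEM). CellTiterGlo luminescence converted to cell number via standard curve; % inhibition vs untreated control, GI50 from curve fit.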

[2] = system: HCT116 cells (colorectal carcinoma); experiment: Inhibition of cancer cell proliferation, HCT116 (CellTiterGlo, 72 hours); details: Homo sapiens, HCT-116
Method: Measurement of Inhibition of Cancer Cell Proliferation (HCT116/Colorectal Carcinoma)
The following protocol used a HCT116 cell line, which cell line is a model for colorectal carcinoma. HCT116 cells were split and 3000 cells in 100 μl of growth medium were added per well of a flat-bottom 96-well plate. A two-fold test compound solution in serum-free RPM1640 was made, starting at 5,000 nM. Then, 3-fold serial dilutions were made across the plate from well 1 to well 11. Well 12, the last well in a row on the plate, was left as untreated control. 100 μl compound solutions were then transferred to the wells, so the total volume of media was 200 μl per well. Plates were returned to a 37° C. incubator, and the cells were cultured for 72 hours. To measure cell proliferation after 72 hours, media was discarded from the plates, 50 μl/well of fresh medium was added, and 50 μl CellTiterGlo solution was added (Promega Cat#G7573). The plate was covered with a dark lid and incubated for 10 min. A white sealing tape was applied to the bottom of the plate, and the plate was read in a luminescence plate reader. […] 50 μl CellTiterGlo was added per well, and the plate was read in a luminescence plate reader after 10 min. The reading was plotted vs. cell number to generate a standard curve and the equation of the curve fit. The compound-treated sample luminescence readings were converted to cell numbers using the curve-fit equation. The percent of inhibition, using untreated control as 100% growth, was then calculated. GI50 was then calculated by GraphPad Prism.

[3] = system: HT-29 cells (colorectal adenocarcinoma); experiment: Inhibition of cancer cell proliferation, HT-29 (CellTiterGlo, 72 hours); details: Homo sapiens
How it was run: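 HT-29 cells seeded at 3000/well, then treated with 3-fold serial dilutions from a 5,000 nM two-fold solution in serum-free RPMI1640, untreated wells as control, for 72 h at 37° C. CellTiterGlo luminescence converted to cell number via a standard curve; GI50 from percent inhibition versus untreated growth.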

SMILES | GI50 [1] | GI50 [2] | GI50 [3]
C=CC(=O)Nc1ccccc1Nc1nc(Nc2cc(OC)nc(N3CCN(C(C)=O)CC3)c2)ncc1C(F)(F)F [Compound I-92] | < 0.1 µM | < 0.1 µM | < 0.1 µM
C=CC(=O)Nc1cc(C)ccc1Nc1nc(Nc2cc(NCCOC)nc(OC)c2)ncc1C(F)(F)F [Compound I-294, N-(2-((2-((2-methoxy-6-((2-methoxyethyl)amino)pyridin-4-yl)amino)-5-(trifluoromethyl)pyrimidin-4-yl)amino)-5-methylphenyl)acrylamide] | < 0.1 µM | < 0.1 µM | < 0.1 µM
C=CC(=O)Nc1cc(C)ccc1Nc1nc(Nc2cc(OC)nc(OC)c2)ncc1C(F)(F)F [Compound I-96] | 0.101 to 0.5 µM | < 0.1 µM | < 0.1 µM
C=CC(=O)Nc1cc(OCC(N)=O)ccc1Nc1nc(Nc2cc(OC)ncc2C)ncc1C(F)(F)F [Compound I-398, N-(5-(2-amino-2-oxoethoxy)-2-((2-((2-methoxy-5-methylpyridin-4-yl)amino)-5-(trifluoromethyl)pyrimidin-4-yl)amino)phenyl)acrylamide] | < 0.1 µM | 0.101 to 0.5 µM | < 0.1 µM
C=CC(=O)Nc1cc(C)ccc1Nc1nc(Nc2cc(OC)cnc2Cl)ncc1C(F)(F)F [Compound I-361, N-(2-((2-((2-chloro-5-methoxypyridin-3-yl)amino)-5-(trifluoromethyl)pyrimidin-4-yl)amino)-5-methylphenyl)acrylamide] | 0.101 to 0.5 µM | 0.501 to 0.999 µM | 0.101 to 0.5 µM
C=CC(=O)Nc1cc(CN2CCN(C(=O)c3cccnc3)CC2)ccc1Nc1nc(Nc2cc(OC)ncc2C)ncc1C(F)(F)F [Compound I-389, N-(2-((2-((2-methoxy-5-methylpyridin-4-yl)amino)-5-(trifluoromethyl)pyrimidin-4-yl)amino)-5-((4-nicotinoylpiperazin-1-yl)methyl)phenyl)acrylamide] | < 0.1 µM | 0.101 to 0.5 µM | < 0.1 µM
C=CC(=O)Nc1cc(C)ccc1Nc1nc(Nc2ncc(F)c(OC)n2)ncc1C(F)(F)F [Compound I-356, N-(2-((2-((5-fluoro-4-methoxypyrimidin-2-yl)amino)-5-(trifluoromethyl)pyrimidin-4-yl)amino)-5-methylphenyl)acrylamide] | 0.501 to 0.999 µM | > 1 µM | 0.501 to 0.999 µM
C=CC(=O)Nc1cc(C)ccc1Nc1nc(Nc2nc(OC)ncc2C)ncc1C(F)(F)F [Compound I-347, N-(2-((2-((2-methoxy-5-methylpyrimidin-4-yl)amino)-5-(trifluoromethyl)pyrimidin-4-yl)amino)-5-methylphenyl)acrylamide] | < 0.1 µM | 0.501 to 0.999 µM | 0.101 to 0.5 µM
C=CC(=O)Nc1cc(C)ccc1Nc1nc(Nc2nc(OC)ccc2Cl)ncc1C(F)(F)F [Compound I-360, N-(2-((2-((3-chloro-6-methoxypyridin-2-yl)amino)-5-(trifluoromethyl)pyrimidin-4-yl)amino)-5-methylphenyl)acrylamide] | 0.101 to 0.5 µM | > 1 µM | > 1 µM
C=CC(=O)Nc1cc(CCC(N)=O)ccc1Nc1nc(Nc2cc(OC)ncc2C)ncc1C(F)(F)F [Compound I-400, N-(5-(3-amino-3-oxopropyl)-2-((2-((2-methoxy-5-methylpyridin-4-yl)amino)-5-(trifluoromethyl)pyrimidin-4-yl)amino)phenyl)acrylamide] | 0.101 to 0.5 µM | 0.501 to 0.999 µM | 0.101 to 0.5 µM
C=CC(=O)Nc1cc(C)ccc1Nc1nc(Nc2cc(N[C@H]3CC[C@](C)(O)CC3)nc(OC)c2)ncc1C(F)(F)F [Compound I-327, N-(2-((2-((2-((trans-4-hydroxy-4-methylcyclohexyl)amino)-6-methoxypyridin-4-yl)amino)-5-(trifluoromethyl)pyrimidin-4-yl)amino)-5-methylphenyl)acrylamide] | < 0.1 µM | < 0.1 µM | –
